From patent US12060333B2 (Hoffmann-La Roche Inc., priority 2021, dated 2024) come the findings set out here.

Like-named read-outs stand apart in the source and are kept apart here.

Test [1] concerns the target HCoV-229E 3CLpro (Human coronavirus 229E, UniProt P0C6X1). The test can be described thus: HCoV-229E 3CLpro inhibition assay (FRET). The format is biochemical. Particulars: protease 25 nM, FRET substrate 15 μM, pre-incubated 1 hr, read-out: 229E (activity in different coronaviruses). As for the experimental part: HCoV-229E 3CL^pro inhibition assay
The HCoV-229E 3CL^pro was expressed in E. coli BL21 (DE3) with the protein sequence of
For the HCoV-229E 3CL^pro assay, 2 μL of […] recombinant HCoV-229E 3CL protease were mixed with serial dilutions of each compound in 4 μL assay buffer containing 40 mM HEPES, pH=8.0, 1 mM CHAPS, 150 mM NaCl, 1 mM EDTA, 1 mM TCEP in a well of a 384-well plate and pre-incubated at rt for 1 hr. The custom-synthesized fluorogenic 3CL^pro peptide substrate used in the assay is as follows: FAM-[…]-TAMRA (peptide sequence according to SEQ ID NO: 3). This FRET-based substrate contains a FAM fluorophore attached at the N-terminus of a canonical 3CL^pro peptide substrate. The fluorophore is internally quenched by the TAMRA. The reaction was initiated by the addition of 10 μL of the substrate with a final concentration of 15 μM and each well was incubated at RT for 30 mins. The final concentration of the protease used at the assay was 25 nM and each compound was at a final concentration range of 100-0.0016 μM. The IC50 value which is the value causing 50% inhibition of the catalytic activity of the HCoV-229E 3CL^pro was calculated by four parameters equation analysis.

The target of test [2] is SARS-CoV 3CLpro (Severe acute respiratory syndrome coronavirus, UniProt P0C6X7). Kind of test: biochemical.
Test [3] has as its target MERS-CoV 3CLpro (Middle East respiratory syndrome-related coronavirus, UniProt K9N7C7). Kind of test: biochemical.
Test [4] has as its target SARS-CoV-2 3CLpro (Severe acute respiratory syndrome coronavirus 2, UniProt P0DTD1). Kind of test: biochemical.
Setting [5] is: IC50 (μM), SARS-CoV-2 3CLPro assay.

In the case of `Cc1cc(C(=O)N[C@@H](CC2(C)CC2)C(=O)NN(C[C@@H]2CCNC2=O)C(=O)[C@H](F)Cl)no1` [Example 70, N-[(1S)-2-[2-[(2R)-2-chloro-2-fluoro-acetyl]-2-[[(3S)-2-axopyrrolidin-3-yl]methyl]hydrazino]-1-[(1-methylcyclopropyl)methyl]-2-axo-ethyl]-5-methyl-isoxazole-3-carboxamide], the IC50 in test [1] came to 0.024 µM; in test [2] it was 0.094 µM; in test [3], 0.054 µM; in test [4] (setting [5]), 0.059 µM.
For `CC1(C[C@H](NC(=O)c2cc(C(F)F)on2)C(=O)NN(C[C@@H]2CCNC2=O)C(=O)[C@H](F)Cl)CC1` [Example 100, N-[(1S)-2-[2-[(2R)-2-chloro-2-fluoro-acetyl]-2-[[(3S)-2-axopyrrolidin-3-yl]methyl]hydrazino]-1-[(1-methylcyclopropyl)methyl]-2-axo-ethyl]-5-(difluoromethyl)isoxazole-3-carboxamide], the IC50 in test [1] was 0.028 µM; in test [2], 0.031 µM; in test [3], 0.094 µM; in test [4] (setting [5]), 0.024 µM.
Take `Cc1cc(C(=O)N[C@@H](CCC(C)C)C(=O)NN(C[C@@H]2CCNC2=O)C(=O)[C@H](F)Cl)no1` [Example 101, N-[(1S)-1-[[[(2R)-2-chloro-2-fluoro-acetyl]-[[(3S)-2-axopyrrolidin-3-yl]methyl]amino]carbamoyl]-4-methyl-pentyl]-5-methyl-isoxazole-3-carboxamide]: the IC50 was found to be 0.074 µM in test [1]; 0.16 µM in test [2] (read-out: SARS (activity in different coronaviruses)); 0.32 µM in test [3]; 0.09 µM in test [4] (read-out: IC50 (μM), SARS-CoV-2 3CLPro assay).
